Measured values reported in patent US5262417A, “Antibacterial quinolone compounds” (The Upjohn Company, priority 1991, dated 1993).

Experiments:
Assay in all cases: Dipped disk (disk-diffusion) assay, disks loaded with 0.10 ml
Assay type in all cases: cell-based
[1] = tested on: Escherichia coli UC 51 (EC); design: zone of inhibition: dose or concentration left out as unconfirmed
Procedure: (§1) The effectiveness of the subject compounds on some bacteria were obtained by performing a dipped disk assay. The antibacterial activity of the compounds is determined by the disk-diffusion method. […] They were then applied to the surface of microorganism-seeded agar assay trays, which contained the bacterial strain Pseudomonas aeruginosa UC 95 )PA), Escherichia coli UC 51 (EC) or Staphylococcus aureus UC 80 (SA). The assay trays were incubated overnight under aerobic condition to allow for the growth of the organisms. Zones of growth inhibition due to the action of the antibiotic were then measured to the nearest millimeter.

[2] = tested on: Pseudomonas aeruginosa UC 95 (PA); conditions: Pseudomonas aeruginosa, UC95; Conc 1 mg/ml, 0.10 ml per disk; read-out: Growth Inhibition Zone, PA
Procedure: as §1

[3] = tested on: Staphylococcus aureus UC 80 (SA)
Procedure: as §1

For `O=C(O)c1cn(C2CC2)c2cc(N3CCNCC3)c(F)cc2c1=O` [Ciprofloxacin, reference compound], the “Growth Inhibition Zone, EC” value ([1]; Conc 1 mg/ml, 0.10 ml per disk) was 35 mm, the zone of inhibition ([1]; Escherichia coli, UC51, 0.10 ml per disk, read-out: Growth Inhibition Zone, EC) was 33 mm and the zone of inhibition at 1000 µg/mL [2] was 48 mm. For the same compound, the “Growth Inhibition Zone, SA” value ([3]; Conc 1 mg/ml, 0.10 ml per disk) was 30 mm and the zone of inhibition at 1000 µg/mL ([3]; Staphylococcus aureus, UC80, read-out: Growth Inhibition Zone, SA, Conc 1 mg/ml, 0.10 ml per disk) was 28 mm.
